In patent US7022725B2, “Isoxazole derivatives” (Takeda Pharmaceutical Company Limited, priority 2000, dated 2006):

How the values were obtained:
[1] = tested on: Male SD rats; test: Hypoglycemic action in rats (oral glucose tolerance test); assay type: in vivo; details: Rattus norvegicus, 0.5 h, male SD rats fasted overnight, glucose load 2 g/kg 60 min later, blood drawn 30 min after starting glucose loading, read-out: glucose level (% of control); for response vs control in vivo at 30 mg/kg: 30 mg/kg body weight oral; for response vs control in vivo at 50 mg/kg: 50 mg/kg body weight oral
Description: Hypoglycemic Action in Rats
Male SD rats (7 weeks of age, 5 per group) were fasted overnight and blood was drawn from the tail vein to measure the glucose level before administration of the test compound. Then the test compound (30 mg/kg body weight/10 mL (compounds of Examples 8, 16, 66, 68, 79, 94, 123) or 50 mg/kg body weight/10 mL (compounds of Examples 58, 70)) suspended in 0.5% methyl cellulose was orally administered to the rats using a gastric tube. Oral glucose tolerance test (2 g/kg body weight/10 mL) was started 60 min later. Blood was drawn at 30 min after starting the glucose loading, and glucose level was measured. The glucose level was measured using an automatic analyzer (HITACHI 7070).

[2] = tested on: pancreatic Langerhans' islet of rats; test: Insulin secretion promoting action in pancreatic Langerhans' islet of rats; assay type: cell-based, rat; details: test compound 100 μmol/L, 7.5 mmol/L glucose, 1 hr incubation; insulin secretion amount relative to control group, amended by DNA amount
Description: Insulin Secretion Promoting Action in Pancreatic Langerhans' Islet of Rats
The pancreas of 8-week-old male SD rat was treated with collagenase and the isolated Langerhans' islet was preincubated for 1 hr in a medium (KRB) containing 2.8 mmol/L glucose in a 24 well incubation plate, which was followed by incubation for 1 hr in KRB containing the test compound (100 μmol/L, see Table 2) and 7.5 mmol/L glucose (control group was free of test compound). The medium was recovered and the amount of the secreted insulin was measured using a radioimmunoassay kit (trademark: SHIONORIA insulin kit (manufactured by Shionogi & Co., Ltd.)). The Langerhans' islet was lysed by ultrasonication and the DNA amount was measured, based on which the insulin level in the medium was amended. The insulin secretion amount of the test compound group is expressed in a value (%) relative to the control group and shown in Table 2.

Row | Structure (SMILES) | response vs control in vivo at 30 mg/kg [1] [%] | insulin secretion promoting action (%) [2] [%] | melting point [°C] | response vs control in vivo at 50 mg/kg [1] [%]
1 | OCCCc1cnoc1-c1ccc(Cl)cc1 [Example 16, 3-[5-(4-chlorophenyl)-4-isoxazolyl]propan-1-ol] | 88 |  |  | 
2 | O=C(O)CCc1cnoc1-c1ccc(F)c(Cl)c1 [Example 92, 3-[5-(3-chloro-4-fluorophenyl)-4-isoxazolyl]propionic acid] |  | 156 | 118 to 119 | 
3 | O=C(O)CCc1cnoc1-c1ccc(F)c(F)c1 [Example 77, 3-[5-(3,4-difluorophenyl)-4-isoxazolyl]propionic acid] |  | 201 | 102 to 103 | 
4 | O=C(O)CCc1cnoc1-c1ccc(Cl)cc1 [Example 8, 3-[5-(4-chlorophenyl)-4-isoxazolyl]propionic acid] | 85 | 256 |  | 
5 | OCCCc1cnoc1-c1ccc(F)cc1 [Example 58, 3-[5-(4-fluorophenyl)-4-isoxazolyl]propan-1-ol] |  |  |  | 85
6 | O=C(O)CCc1cnoc1-c1ccc(Cl)s1 [Example 64, 3-[5-(5-chloro-2-thienyl)-4-isoxazolyl]propionic acid] |  | 273 | 138 to 139 | 
7 | OCCCc1cnoc1-c1ccc(Cl)s1 [Example 66, 3-[5-(5-chloro-2-thienyl)-4-isoxazolyl]propan-1-ol] | 80 |  |  | 
8 | OCCCc1cnoc1-c1ccc(F)c(F)c1 [Example 79, 3-[5-(3,4-difluorophenyl)-4-isoxazolyl]propan-1-ol] | 77 |  |  | 
9 | OCCCc1cnoc1-c1ccc(F)c(Cl)c1 [Example 94, 3-[5-(3-chloro-4-fluorophenyl)-4-isoxazolyl]propan-1-ol] | 81 |  |  | 
10 | OCCCc1cnoc1-c1ccc(Cl)c(Cl)c1 [Example 68, 3-[5-(3,4-dichlorophenyl)-4-isoxazolyl]propan-1-ol] | 75 |  |  | 
11 | O=C(O)CCc1cnoc1-c1ccc(Cl)c(Cl)c1 [Example 70, 3-[5-(3,4-dichlorophenyl)-4-isoxazolyl]propionic acid] |  | 235 | 171 to 172 | 88
12 | O=C(O)CCc1cnoc1-c1cc(Cl)c(Cl)s1 [Example 123, 3-[5-(4,5-dichloro-2-thienyl)-4-isoxazolyl]propionic acid] | 86 |  | 142 to 143 | 
